What was measured:
[1] = target: EP4 (Homo sapiens (Human), UniProt P35408); assay: hEP4 cAMP assay (BT549 breast cancer cells, HTRF cAMP); type: cell-based; settings: antagonistic activity, PGE2 6 nM
Outline: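 cAMP accumulation quantified by HTRF competition between cellular cAMP and d2-labeled cAMP for cryptate anti-cAMP antibody. Cells: endogenously EP4-expressing BT549, buffer with 2 mM IBMX; 45 min RT compound preincubation preceded 30 min RT challenge with PGE2 at 6 nM final.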

[2] = target: PTGER2 (EP2) (Homo sapiens (Human), UniProt P43116); assay: hEP2 b-arrestin assay (PathHunter HEK 293 PTGER2 b-arrestin cells); type: cell-based; settings: antagonistic activity, beta-arrestin assay; read-out: hEP2 b-arr IC50
Chain of PTGER2 (EP2) (P43116 whole entry): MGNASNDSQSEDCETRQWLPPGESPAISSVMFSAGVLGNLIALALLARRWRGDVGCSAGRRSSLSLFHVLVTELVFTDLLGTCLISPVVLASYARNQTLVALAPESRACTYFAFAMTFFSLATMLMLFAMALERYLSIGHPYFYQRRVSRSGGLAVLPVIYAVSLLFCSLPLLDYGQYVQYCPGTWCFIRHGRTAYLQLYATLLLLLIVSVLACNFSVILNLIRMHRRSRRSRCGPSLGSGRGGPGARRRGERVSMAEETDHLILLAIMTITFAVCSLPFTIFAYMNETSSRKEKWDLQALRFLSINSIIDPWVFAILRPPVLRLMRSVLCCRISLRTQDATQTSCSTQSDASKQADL
Protocol: Plate is pre-incubated 15 minutes at 37° C. Then five microliters of PGE2 (final conc. 5 μM) are transferred into the assay plate. Plate is incubated 120 minutes at 37° C.
(each concentration is measured in duplicate)

[3] = target: PTGER4 (EP4) (Homo sapiens (Human), UniProt P35408)
Chain of PTGER4 (EP4) (P35408 whole entry): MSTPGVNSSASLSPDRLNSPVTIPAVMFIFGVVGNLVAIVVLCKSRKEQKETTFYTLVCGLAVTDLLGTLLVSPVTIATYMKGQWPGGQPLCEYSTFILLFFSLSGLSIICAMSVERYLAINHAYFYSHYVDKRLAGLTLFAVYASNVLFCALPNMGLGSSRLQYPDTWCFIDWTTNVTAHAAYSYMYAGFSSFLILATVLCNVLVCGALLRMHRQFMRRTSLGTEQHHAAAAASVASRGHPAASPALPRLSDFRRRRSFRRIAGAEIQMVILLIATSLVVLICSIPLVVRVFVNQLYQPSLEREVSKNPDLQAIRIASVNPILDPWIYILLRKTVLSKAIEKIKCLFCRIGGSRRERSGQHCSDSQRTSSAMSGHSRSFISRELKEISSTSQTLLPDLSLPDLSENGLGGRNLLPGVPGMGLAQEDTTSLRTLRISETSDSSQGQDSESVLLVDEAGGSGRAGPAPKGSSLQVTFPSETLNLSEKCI

[4] = target: EP2 (Homo sapiens (Human), UniProt P43116); assay: hEP2 cAMP assay (SF295 glioblastoma cells, HTRF cAMP); type: cell-based; settings: antagonistic activity
Chain of EP2 (P43116 whole entry): as the sequence (P43116 whole entry) above
Outline: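 PGE2-driven cAMP accumulation was measured by HTRF in SF295 cells, which express endogenous EP2 only. Cells in assay buffer with 2 mM IBMX were pre-incubated 45 min at RT, then incubated 30 min at RT. Detection used competition between cellular cAMP and d2-cAMP for a cryptate anti-cAMP antibody.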

Chain of EP4 (P35408 whole entry): as the sequence (P35408 whole entry) above

Row | Compound | IC50 [1] | IC50 [2] | IC50 [3] | IC50 [4] | IC50 ([1]; BT549 cells)
1 | CCOc1cc(-c2cc(NCCc3ccc4scnc4c3)ncn2)sc1C(=O)O [Ex 88] | 53 nM | 107 nM | 59 nM | 64 nM | 
2 | COc1c(CCNc2cc(-c3cc(F)c(C(=O)O)c(OC4CCC4)c3)ncn2)c(F)c(F)c2cc(C)oc12 [Ex 262] | 424 nM | 1300 nM | 186 nM | 855 nM | 
3 | CCOc1cc(-c2cc(NCCc3ccc4scc(C#N)c4c3)ncn2)ccc1CC(=O)O [Ex 209] | 249 nM | 832 nM | 143 nM | 248 nM | 
4 | O=C(O)c1ccc(-c2cc(NCCc3ccc4c(c3)CCS4)ncn2)cc1OC1CCC1 [Ex 170] | 168 nM | 241 nM | 124 nM | 94 nM | 
5 | 2-Ethoxy-4-{6-[2-(7-ethynyl-2,3-dihydro-benzo[1,4]dioxin-6-yl)-ethylamino]-pyrimidin-4-yl}-benzoic acid [Example 439] |  | 17 nM | 197 nM | 33 nM | 139 nM
6 | CCOc1cc(-c2cc(NCCc3ccc4ncoc4c3)ncn2)sc1C(=O)O [Ex 146] | 137 nM | 258 nM | 361 nM | 115 nM | 
7 | CCOc1cc(-c2cc(NCCc3cc4c(Cl)ccnc4cc3C)ncn2)sc1C(=O)O [Ex 178] | 188 nM | 30 nM | 164 nM | 54 nM | 
8 | CCOc1cc(-c2cc(NCCc3ccc4ncccc4c3F)ncn2)sc1C(=O)O [Ex 69] | 38 nM | 438 nM | 59 nM | 222 nM | 
9 | CCOc1cc(-c2cc(NCCc3ccc4sncc4c3)ncn2)sc1C(=O)O [Ex 135] | 115 nM | 198 nM | 172 nM | 171 nM | 
10 | N#Cc1csc2ccc(CCNc3cc(-c4ccc(C(=O)O)c(OC5CCC5)c4)ncn3)cc12 [Ex 273] | 455 nM | 289 nM | 221 nM | 140 nM | 
11 | CCOc1cc(-c2cc(NCCc3cc(F)c4cc(C)sc4c3OC)ncn2)sc1C(=O)O [Ex 94] | 59 nM | 423 nM | 49 nM | 528 nM | 
12 | CCOc1cc(-c2cc(NCCc3cc4c(cc3OC)OCCO4)ncn2)ccc1OCC(=O)O [Ex 120] | 92 nM | 114 nM | 61 nM | 111 nM | 
13 | COc1cc2c(cc1CCNc1cc(-c3ccc(C(=O)O)c(CC(C)C)c3)ncn1)OCCO2 [Example 416] |  | 245 nM | 82 nM | 123 nM | 83 nM
14 | CCOc1cc(-c2cc(NCCc3cc4c(cc3C#N)OCCO4)ncn2)sc1C(=O)O [Ex 6] | 4 nM | 11 nM | 6 nM | 37 nM | 
15 | COc1cc2c(cc1CCNc1cc(-c3ccc(C(=O)O)c(OC4CCC4)c3)ncn1)OCCO2 [Ex 187] | 206 nM | 74 nM | 144 nM | 64 nM | 
16 | CCOc1cc(-c2cc(NCCc3cc4c(cc3C#N)OCCO4)ncn2)ccc1C(=O)O [Ex 203] | 237 nM |  | 352 nM | 687 nM | 
17 | CCOc1cc(-c2cc(NCCc3ccc4ccsc4c3)ncn2)ccc1OCC(=O)O [Ex 144] | 132 nM |  | 91 nM | 751 nM | 
18 | CCOc1cc(-c2cc(NCCc3cc4ccn(C)c4cc3F)ncn2)sc1C(=O)O [Ex 16] | 8 nM |  | 5 nM | 269 nM | 
19 | CCOc1cc(-c2cc(NCCc3cc4c(cc3Cl)OC(F)(F)O4)ncn2)sc1C(=O)O [Ex 165] | 164 nM |  | 188 nM | 333 nM | 
20 | CCOc1cc(-c2cc(NCCc3cc4cccnc4cc3C)ncn2)sc1C(=O)O [Ex 177] | 186 nM |  | 156 nM | 280 nM | 
21 | CCOc1cc(-c2cc(NCCc3cc4c(cc3Cl)NCCO4)ncn2)sc1C(=O)O [Ex 149] | 144 nM |  | 194 nM | 619 nM | 
22 | CCOc1cc(-c2cc(NCCc3cc4cnccc4cc3F)ncn2)sc1C(=O)O [Ex 106] | 74 nM |  | 135 nM | 831 nM | 

Second part, led by results:

Row | IC50 [1] | IC50 [2] | IC50 [3] | IC50 [4] | Compound | IC50 ([1]; BT549 cells)
23 | 583 nM | 34 nM | 1600 nM | 61 nM | CCOc1cc(-c2cc(NCCc3ccc4sccc4c3C)ncn2)ccc1C(=O)O [Ex 296] | 
24 | 30 nM | 37 nM | 94 nM | 18 nM | COc1cc2ccccc2c(C)c1CCNc1cc(-c2ccc(C(=O)O)c(SC)c2)ncn1 [Ex 59] | 
25 | 910 nM | 126 nM | 1070 nM | 160 nM | CSc1cc(-c2cc(NCCc3ccc4sccc4c3C)ncn2)ccc1CC(=O)O [Ex 326] | 
26 | 141 nM | 174 nM | 46 nM | 126 nM | CCOc1cc(-c2cc(NCCc3ccc4ccccc4c3C)ncn2)sc1CC(=O)O [Ex 148] | 
27 | 103 nM | 151 nM | 192 nM | 76 nM | CCOc1cc(-c2cc(NCCc3cc4ccsc4cc3C#N)ncn2)ccc1C(=O)O [Ex 128] | 
28 | 21 nM | 127 nM | 5 nM | 185 nM | CCOc1cc(-c2cc(NCCc3cc4ccccc4cc3OC(F)F)ncn2)sc1C(=O)O [Ex 45] | 
29 | 3 nM | 100 nM | 12 nM | 268 nM | CCOc1cc(-c2cc(NCCc3c(F)cc4ccccc4c3F)ncn2)sc1C(=O)O [Ex 335] | 
30 | 17 nM | 53 nM | 33 nM | 52 nM | COc1cc2ccccc2c(F)c1CCNc1cc(-c2ccc(C(=O)O)c(SC)c2)ncn1 [Ex 29] | 
31 | 51 nM | 173 nM | 85 nM | 134 nM | CCOc1cc(-c2cc(NCCc3cc4cccnc4c(C)c3Cl)ncn2)sc1C(=O)O [Ex 87] | 
32 | 224 nM | 127 nM | 300 nM | 176 nM | COc1cc2c(cc1CCNc1cc(-c3ccc(CC(=O)O)c(SC)c3)ncn1)OCCO2 [Ex 197] | 
33 | 22 nM | 96 nM | 16 nM | 98 nM | COc1cc2ccccc2c(F)c1CCNc1cc(-c2ccc(C(=O)O)c(OC3CCC3)c2)ncn1 [Ex 25] | 
34 | 88 nM | 34 nM | 74 nM | 66 nM | CCOc1cc(-c2cc(NCCc3cc4ccsc4cc3OC)ncn2)ccc1CC(=O)O [Ex 118] | 
35 | 14 nM | 15 nM | 3 nM | 19 nM | CCOc1cc2ccccc2cc1CCNc1cc(-c2cc(OCC)c(C(=O)O)s2)ncn1 [Ex 23] | 
36 | 435 nM | 1520 nM | 404 nM | 5660 nM | CSc1cc(-c2cc(NCCc3c(F)cc4ccccc4c3F)ncn2)ccc1CC(=O)O [Ex 270] | 
37 | 1 nM | 113 nM | 3 nM | 79 nM | CCOc1cc(-c2cc(NCCc3c(C#N)cc4ccccc4c3C)ncn2)sc1C(=O)O [Ex 2] | 
38 | 120 nM | 74 nM | 358 nM | 61 nM | CSc1cc(-c2cc(NCCc3ccc4c(c3)CCS4)ncn2)ccc1C(=O)O [Ex 138] | 
39 | 46 nM | 148 nM | 28 nM | 214 nM | CCOc1cc(-c2cc(NCCc3c(OC)cc4ccccc4c3C)ncn2)ccc1CC(=O)O [Ex 61] | 
40 | 173 nM | 84 nM | 260 nM | 61 nM | COc1cc2sccc2cc1CCNc1cc(-c2ccc(CC(=O)O)c(SC)c2)ncn1 [Ex 224] | 
41 | 45 nM | 17 nM | 32 nM | 37 nM | CCOc1cc(-c2cc(NCCc3cc4ccsc4cc3OC)ncn2)ccc1OCC(=O)O [Ex 80] | 
42 | 206 nM | 45 nM | 105 nM | 142 nM | CCOc1cc2ccccc2cc1CCNc1cc(-c2ccc(C(=O)O)c(OCC)c2)ncn1 [Ex 188] | 
43 | 188 nM |  | 55 nM | 692 nM | O=C(O)c1ccc(-c2cc(NCCc3cc4ccccc4cc3OC(F)F)ncn2)cc1OC1CCC1 [Ex 180] | 
44 | 11 nM |  | 16 nM | 249 nM | CCOc1cc(-c2cc(NCCc3cc4ccccc4c(Cl)c3OC)ncn2)sc1C(=O)O [Ex 19] | 
45 | 956 nM |  | 798 nM | 755 nM | COc1cc2c(cc1CCNc1cc(-c3ccc(C(=O)O)c(SC)c3)ncn1)CCCN2 [Ex 329] | 
46 | 47 nM |  | 19 nM | 1280 nM | CCOc1cc(-c2cc(NCCc3cc4ccccc4cc3C#N)ncn2)ccc1OCC(=O)O [Ex 84] | 
47 | 689 nM |  | 556 nM | 2490 nM | CCOc1cc(-c2cc(NCCc3cc4ccccc4cc3NC)ncn2)ccc1C(=O)O [Ex 312] | 
48 | 35 nM |  | 21 nM | 1220 nM | CCOc1cc(-c2cc(NCCc3ccc4cccc(F)c4c3)ncn2)sc1C(=O)O [Ex 66] | 
49 | 202 nM |  | 194 nM | 811 nM | COc1c(CCNc2cc(-c3ccc(C(=O)O)c(SC)c3)ncn2)cc2ccccc2c1Cl [Ex 186] | 
50 | 27 nM |  | 68 nM | 331 nM | CCOc1cc(-c2cc(NCCc3c(C#N)cc4ccccc4c3C)ncn2)ccc1C(=O)O [Ex 54] | 
